{"source": "PubChem BioAssay AID1745844", "about": "(Carcinogenic Potency Database (CPDB), 2022)", "system": "rodent lifetime carcinogenesis bioassay, tumor incidence TD50", "test": "carcinogenic potency in animals, long-term in vivo studies, CPDB compilation (AID 1745844)", "note": "Activity calls are given as the source filed them. No rule for the calls is given here.", "data": [{"smiles": "NN", "values": [{"measurement": "TD50", "setting": "hamster, strain Syrian Golden, males, inhaled, site: colon, lesion: adenocarcinoma, dosed 52 weeks, study length 104 weeks", "value": 14, "unit": "mg/kg/day"}, {"measurement": "TD50", "setting": "hamster, strain Syrian Golden, males, inhaled, site: colon, lesion: leiomyoma, dosed 52 weeks, study length 104 weeks", "value": 70.5, "unit": "mg/kg/day"}, {"measurement": "TD50", "setting": "hamster, strain Syrian Golden, males, inhaled, site: colon, lesion: papilloma, dosed 52 weeks, study length 104 weeks", "value": 70.5, "unit": "mg/kg/day"}, {"measurement": "TD50", "setting": "hamster, strain Syrian Golden, males, inhaled, site: nasal cavity, lesion: adenomatous polyp, dosed 52 weeks, study length 104 weeks", "value": 4.16, "unit": "mg/kg/day"}, {"measurement": "TD50", "setting": "hamster, strain Syrian Golden, males, inhaled, site: stomach, lesion: basal-cell carcinoma, dosed 52 weeks, study length 104 weeks", "value": 37.6, "unit": "mg/kg/day"}, {"measurement": "TD50", "setting": "hamster, strain Syrian Golden, males, inhaled, site: thyroid gland, lesion: parafollicular-cell adenoma, dosed 52 weeks, study length 104 weeks", "value": 17.5, "unit": "mg/kg/day"}, {"measurement": "TD50", "setting": "mouse, strain Bor:NMRI, SPF-bred NMRI, females, in drinking water, site: any site (literature study), lesion: benign tumor, dosed 104 weeks, study length 104 weeks", "value": "58.5 mg/kg/day (inactive)"}, {"measurement": "carcinogen call", "setting": "mouse, strain Bor:NMRI, SPF-bred NMRI, females, in drinking water, site: any site (literature study), lesion: malignant tumor, dosed 104 weeks, study length 104 weeks", "value": "negative (inactive)"}, {"measurement": "carcinogen call", "setting": "mouse, strain Bor:NMRI, SPF-bred NMRI, males, in drinking water, site: any site (literature study), lesion: benign tumor, dosed 104 weeks, study length 104 weeks", "value": "negative (inactive)"}, {"measurement": "carcinogen call", "setting": "mouse, strain Bor:NMRI, SPF-bred NMRI, males, in drinking water, site: any site (literature study), lesion: malignant tumor, dosed 104 weeks, study length 104 weeks", "value": "negative (inactive)"}, {"measurement": "TD50", "setting": "mouse, strain C57BL/6, females, inhaled, site: lung, lesion: adenoma, dosed 52 weeks, study length 117 weeks", "value": 7.78, "unit": "mg/kg/day"}, {"measurement": "TD50", "setting": "mouse, strain Swiss, females, by gavage, site: lung, lesion: one or several types, types not named, dosed 40 weeks, study length 55 weeks", "value": 5.67, "unit": "mg/kg/day"}, {"measurement": "TD50", "setting": "mouse, strain Swiss, females, in drinking water, site: lung, lesion: adenocarcinoma, dosed 113 weeks, study length 113 weeks", "value": 9, "unit": "mg/kg/day"}, {"measurement": "TD50", "setting": "mouse, strain Swiss, females, in drinking water, site: lung, lesion: adenoma, dosed 113 weeks, study length 113 weeks", "value": 2.81, "unit": "mg/kg/day"}, {"measurement": "TD50", "setting": "mouse, strain Swiss, females, in drinking water, site: lung, lesion: several types, types named in the paper, dosed 113 weeks, study length 113 weeks", "value": 2.54, "unit": "mg/kg/day"}, {"measurement": "TD50", "setting": "mouse, strain Swiss, males, in drinking water, site: all sites, lesion: malignant lymphoma, dosed 113 weeks, study length 113 weeks", "value": 9.52, "unit": "mg/kg/day"}, {"measurement": "TD50", "setting": "mouse, strain Swiss, males, in drinking water, site: liver, lesion: several types, types named in the paper, dosed 113 weeks, study length 113 weeks", "value": 29.8, "unit": "mg/kg/day"}, {"measurement": "TD50", "setting": "mouse, strain Swiss, males, in drinking water, site: lung, lesion: adenocarcinoma, dosed 113 weeks, study length 113 weeks", "value": 6.19, "unit": "mg/kg/day"}, {"measurement": "TD50", "setting": "mouse, strain Swiss, males, in drinking water, site: lung, lesion: adenoma, dosed 113 weeks, study length 113 weeks", "value": 2.77, "unit": "mg/kg/day"}, {"measurement": "TD50", "setting": "mouse, strain Swiss, males, in drinking water, site: lung, lesion: several types, types named in the paper, dosed 113 weeks, study length 113 weeks", "value": 2.2, "unit": "mg/kg/day"}, {"measurement": "TD50", "setting": "rat, strain Fischer 344, females, inhaled, site: lung, lesion: bronchiolar adenoma, dosed 52 weeks, study length 130 weeks", "value": 26.4, "unit": "mg/kg/day"}, {"measurement": "TD50", "setting": "rat, strain Fischer 344, females, inhaled, site: nasal cavity, lesion: adenocarcinoma, dosed 52 weeks, study length 130 weeks", "value": 9.2, "unit": "mg/kg/day"}, {"measurement": "TD50", "setting": "rat, strain Fischer 344, females, inhaled, site: nasal cavity, lesion: adenomatous polyp, dosed 52 weeks, study length 130 weeks", "value": 0.758, "unit": "mg/kg/day"}, {"measurement": "TD50", "setting": "rat, strain Fischer 344, females, inhaled, site: nasal cavity, lesion: squamous-cell carcinoma, dosed 52 weeks, study length 130 weeks", "value": 13.1, "unit": "mg/kg/day"}, {"measurement": "TD50", "setting": "rat, strain Fischer 344, females, inhaled, site: nasal cavity, lesion: squamous-cell papilloma, dosed 52 weeks, study length 130 weeks", "value": 8.72, "unit": "mg/kg/day"}, {"measurement": "TD50", "setting": "rat, strain Fischer 344, females, inhaled, site: nasal cavity, lesion: villous polyp, dosed 52 weeks, study length 130 weeks", "value": 6.56, "unit": "mg/kg/day"}, {"measurement": "TD50", "setting": "rat, strain Fischer 344, males, inhaled, site: lung, lesion: bronchiolar adenoma, dosed 52 weeks, study length 130 weeks", "value": 6.1, "unit": "mg/kg/day"}, {"measurement": "carcinogen call", "setting": "rat, strain Fischer 344, males, inhaled, site: nasal cavity, lesion: adenocarcinoma, dosed 52 weeks, study length 130 weeks", "value": "positive"}, {"measurement": "TD50", "setting": "rat, strain Fischer 344, males, inhaled, site: nasal cavity, lesion: adenomatous polyp, dosed 52 weeks, study length 130 weeks", "value": 0.194, "unit": "mg/kg/day"}, {"measurement": "TD50", "setting": "rat, strain Fischer 344, males, inhaled, site: nasal cavity, lesion: squamous-cell carcinoma, dosed 52 weeks, study length 130 weeks", "value": 6.12, "unit": "mg/kg/day"}, {"measurement": "TD50", "setting": "rat, strain Fischer 344, males, inhaled, site: nasal cavity, lesion: squamous-cell papilloma, dosed 52 weeks, study length 130 weeks", "value": 6.1, "unit": "mg/kg/day"}, {"measurement": "TD50", "setting": "rat, strain Fischer 344, males, inhaled, site: nasal cavity, lesion: villous polyp, dosed 52 weeks, study length 130 weeks", "value": 1.36, "unit": "mg/kg/day"}, {"measurement": "TD50", "setting": "rat, strain Fischer 344, males, inhaled, site: thyroid gland, lesion: carcinoma, dosed 52 weeks, study length 130 weeks", "value": 1.6, "unit": "mg/kg/day"}, {"measurement": "TD50", "setting": "rat, strain Wistar, females, in drinking water, site: liver, lesion: hepatocellular carcinoma, dosed 157 weeks, study length 157 weeks", "value": 129, "unit": "mg/kg/day"}, {"measurement": "TD50", "setting": "rat, strain Wistar, females, in drinking water, site: liver, lesion: several types, types named in the paper, dosed 157 weeks, study length 157 weeks", "value": 41.6, "unit": "mg/kg/day"}, {"measurement": "TD50", "setting": "rat, strain Wistar, females, in drinking water, site: mammary gland, lesion: malignant tumor, dosed 157 weeks, study length 157 weeks", "value": 1.13, "unit": "mg/kg/day"}, {"measurement": "TD50", "setting": "rat, strain Wistar, males, in drinking water, site: any site (literature study), lesion: several types, types named in the paper, dosed 157 weeks, study length 157 weeks", "value": 9.64, "unit": "mg/kg/day"}, {"measurement": "TD50", "setting": "rat, strain Wistar, males, in drinking water, site: liver, lesion: several types, types named in the paper, dosed 157 weeks, study length 157 weeks", "value": 43.7, "unit": "mg/kg/day"}]}, {"smiles": "CC1(C)[C@H](C(=O)O[C@H](C#N)c2cccc(Oc3ccccc3)c2)[C@@H]1C=C(Br)Br", "values": [{"measurement": "carcinogen call", "setting": "mouse, strain C57BL/6, females, by gavage, site: all sites, lesion: lymphoma, dosed 104 weeks, study length 114 weeks", "value": "negative (inactive)"}, {"measurement": "carcinogen call", "setting": "mouse, strain C57BL/6, females, by gavage, site: any site (literature study), lesion: one or several types, types not named, dosed 104 weeks, study length 114 weeks", "value": "negative (inactive)"}, {"measurement": "carcinogen call", "setting": "mouse, strain C57BL/6, females, by gavage, site: liver, lesion: hepatoma, dosed 104 weeks, study length 114 weeks", "value": "negative (inactive)"}, {"measurement": "carcinogen call", "setting": "mouse, strain C57BL/6, females, by gavage, site: lung, lesion: adenoma, dosed 104 weeks, study length 114 weeks", "value": "negative (inactive)"}, {"measurement": "carcinogen call", "setting": "mouse, strain C57BL/6, males, by gavage, site: any site (literature study), lesion: one or several types, types not named, dosed 104 weeks, study length 114 weeks", "value": "negative (inactive)"}, {"measurement": "carcinogen call", "setting": "mouse, strain C57BL/6, males, by gavage, site: liver, lesion: hepatoma, dosed 104 weeks, study length 114 weeks", "value": "negative (inactive)"}, {"measurement": "carcinogen call", "setting": "mouse, strain C57BL/6, males, by gavage, site: lung, lesion: adenoma, dosed 104 weeks, study length 114 weeks", "value": "negative (inactive)"}, {"measurement": "TD50", "setting": "rat, strain BD VI, females, by gavage, site: any site (literature study), lesion: one or several types, types not named, dosed 104 weeks, study length 114 weeks", "value": "36.1 mg/kg/day (inactive)"}, {"measurement": "carcinogen call", "setting": "rat, strain BD VI, females, by gavage, site: liver, lesion: hepatoma, dosed 104 weeks, study length 114 weeks", "value": "negative (inactive)"}, {"measurement": "TD50", "setting": "rat, strain BD VI, females, by gavage, site: thyroid gland, lesion: adenoma, dosed 104 weeks, study length 114 weeks", "value": "16.9 mg/kg/day (inactive)"}, {"measurement": "carcinogen call", "setting": "rat, strain BD VI, males, by gavage, site: any site (literature study), lesion: one or several types, types not named, dosed 104 weeks, study length 114 weeks", "value": "negative (inactive)"}, {"measurement": "carcinogen call", "setting": "rat, strain BD VI, males, by gavage, site: liver, lesion: hepatoma, dosed 104 weeks, study length 114 weeks", "value": "negative (inactive)"}, {"measurement": "TD50", "setting": "rat, strain BD VI, males, by gavage, site: thyroid gland, lesion: adenoma, dosed 104 weeks, study length 114 weeks", "value": "4.6 mg/kg/day (inactive)"}]}]}
